This is an account of results in patent publication US20140018347A1, “BENZOXAZEPINES AS INHIBITORS OF mTOR AND METHODS OF THEIR USE AND MANUFACTURE” (Exelixis, Inc., priority 2010, published 2014).

The target of one experiment is PI3Kalpha (Homo sapiens, UniProt P42336). As to the kind of experiment: PI3K Biochemical Assays (PI3K-alpha assay). To be noted: ATP consumption, luciferase-luciferin; 1 μM ATP, 10 μM PIP2. The method in brief: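 Recombinant PI3Kα 3 nM, ATP 1 μM and PIP2 10 μM in Tris pH 7.5 with 10 mM MgCl2, ~2 h at ambient temperature. ATP depletion (held to 40-60%) was read by Kinase-Glo luminescence for IC50. Other isoforms: β 10 nM, δ 4 nM; γ 40 nM, 1 h, 5 mM MgCl2.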
Sequence of PI3Kalpha (P42336 whole entry, canonical isoform): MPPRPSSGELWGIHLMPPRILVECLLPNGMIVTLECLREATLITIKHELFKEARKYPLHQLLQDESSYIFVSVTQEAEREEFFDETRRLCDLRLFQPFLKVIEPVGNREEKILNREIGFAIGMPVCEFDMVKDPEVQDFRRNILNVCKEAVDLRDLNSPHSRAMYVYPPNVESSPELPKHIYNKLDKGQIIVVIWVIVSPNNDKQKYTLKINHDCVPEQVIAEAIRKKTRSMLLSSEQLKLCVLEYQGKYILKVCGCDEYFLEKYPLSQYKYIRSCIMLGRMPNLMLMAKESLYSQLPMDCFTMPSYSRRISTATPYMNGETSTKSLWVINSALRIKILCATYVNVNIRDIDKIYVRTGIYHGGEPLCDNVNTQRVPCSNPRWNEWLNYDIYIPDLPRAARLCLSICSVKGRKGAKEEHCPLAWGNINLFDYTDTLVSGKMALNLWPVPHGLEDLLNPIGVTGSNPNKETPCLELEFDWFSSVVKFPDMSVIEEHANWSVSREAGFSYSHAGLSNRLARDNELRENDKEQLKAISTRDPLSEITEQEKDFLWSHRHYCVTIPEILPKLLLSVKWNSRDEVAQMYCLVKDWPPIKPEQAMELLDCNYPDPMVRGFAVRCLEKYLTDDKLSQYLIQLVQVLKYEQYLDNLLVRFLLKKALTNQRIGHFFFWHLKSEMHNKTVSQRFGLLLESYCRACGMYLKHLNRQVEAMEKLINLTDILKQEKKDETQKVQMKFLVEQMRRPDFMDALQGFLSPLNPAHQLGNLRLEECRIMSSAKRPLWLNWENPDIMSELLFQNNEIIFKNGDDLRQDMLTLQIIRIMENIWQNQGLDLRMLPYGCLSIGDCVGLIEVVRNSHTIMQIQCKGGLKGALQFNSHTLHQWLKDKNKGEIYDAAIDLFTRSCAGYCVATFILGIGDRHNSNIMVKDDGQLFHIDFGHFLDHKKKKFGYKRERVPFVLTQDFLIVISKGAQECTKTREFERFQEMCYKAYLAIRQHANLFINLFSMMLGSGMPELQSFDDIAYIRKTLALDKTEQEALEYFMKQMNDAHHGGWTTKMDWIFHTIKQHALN
Sequence of PI3Kalpha (P27986 whole entry partner, canonical isoform): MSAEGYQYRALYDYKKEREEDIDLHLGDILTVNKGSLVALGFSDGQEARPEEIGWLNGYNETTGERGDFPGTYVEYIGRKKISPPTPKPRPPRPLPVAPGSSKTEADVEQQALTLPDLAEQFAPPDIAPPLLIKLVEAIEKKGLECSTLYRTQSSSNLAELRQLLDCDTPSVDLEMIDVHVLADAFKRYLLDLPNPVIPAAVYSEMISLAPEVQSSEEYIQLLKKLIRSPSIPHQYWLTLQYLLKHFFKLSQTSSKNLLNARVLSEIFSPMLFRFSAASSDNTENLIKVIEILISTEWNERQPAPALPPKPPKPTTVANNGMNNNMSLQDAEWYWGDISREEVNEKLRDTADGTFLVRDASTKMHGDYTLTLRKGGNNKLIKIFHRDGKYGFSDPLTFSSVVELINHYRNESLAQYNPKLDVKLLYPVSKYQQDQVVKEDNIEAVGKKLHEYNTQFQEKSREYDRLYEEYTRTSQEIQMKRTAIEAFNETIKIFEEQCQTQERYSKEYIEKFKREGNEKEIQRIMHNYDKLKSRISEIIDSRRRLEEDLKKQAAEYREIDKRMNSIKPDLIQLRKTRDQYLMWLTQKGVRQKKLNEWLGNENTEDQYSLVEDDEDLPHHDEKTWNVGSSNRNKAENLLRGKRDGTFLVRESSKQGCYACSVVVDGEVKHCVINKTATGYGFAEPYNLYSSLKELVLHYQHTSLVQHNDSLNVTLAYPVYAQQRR

The next experiment concerns the target mTORC1 (Homo sapiens, UniProt P42345). As to the kind of experiment: mTOR/GbL/Raptor (mTORC1) ELISA Assay. Format: biochemical. To be noted: phosphorylation of 4E-BP1; 0.2 nM mTORC1, 10 μM ATP. The method in brief: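 Kinase reaction: 0.2 nM mTORC1, 10 μM ATP, 50 nM NHis-4E-BP1 in Hepes pH 7.2 with 10 mM MnCl2, 120 min at ambient temperature. Phospho-4E-BP1 was captured on Ni-chelate plates and detected by anti-phospho-4E-BP1 rabbit IgG, HRP secondary and chemiluminescence.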
(In general: An ELISA detects its analyte on a solid surface through an enzyme-linked reagent.)

What is called IC50 is the concentration that inhibits the measured activity by half. Low values mean higher potency, high ones lower potency. With `Cc1nc(S(C)(=O)=O)nc(N2CCOc3ccc(-c4cnc5sc(N)nc5c4)cc3C2)c1C(C)C` [Compound 24, 6-{4-[6-methyl-5-(1-methylethyl)-2-(methylsulfonyl)pyrimidin-4-yl]-2,3,4,5-tetrahydro-1,4-benzoxazepin-7-yl}[1,3]thiazolo[5,4-b]pyridin-2-amine], the IC50 against PI3Kalpha and on mTORC1 was not above 0.1 µM each time.

Turning to `Cc1nc(NS(C)(=O)=O)nc(N2CCOc3ccc(-c4cnc5sc(N)nc5c4)cc3C2)c1C(C)C` [Compound 23, N-{4-(7-(2-amino[1,3]thiazolo[5,4-b]pyridin-6-yl)-2,3-dihydro-1,4-benzoxazepin-4(5H)-yl]-6-methyl-5-(1-methylethyl)pyrimidin-2-yl}methanesulfonamide], the IC50 at PI3Kalpha was 0.1 to 0.5 µM; against mTORC1, not above 0.1 µM.

On to `CC(C)c1c(Cl)nc(N)nc1N1CCOc2ccc(-c3cnc4sc(N)nc4c3)cc2C1` [Compound 8, 6-{4-[2-amino-6-chloro-5-(1-methylethyl)pyrimidin-4-yl]-2,3,4,5-tetrahydro-1,4-benzoxazepin-7-yl}[1,3]thiazolo[5,4-b]pyridin-2-amine], for which the IC50 against PI3Kalpha and on mTORC1 was not above 0.1 µM throughout.

As for `N#Cc1cnc(N)cc1N1CCOc2ccc(-c3cnc4sc(N)nc4c3)cc2C1` [Compound 58, 6-amino-4-[7-(2-amino[1,3]thiazolo[5,4-b]pyridin-6-yl)-2,3-dihydro-1,4-benzoxazepin-4(5H)-yl]pyridine-3-carbonitrile], the IC50 on PI3Kalpha and against mTORC1 was not above 0.1 µM throughout.

In the case of `C=Cc1c(C)nc(N)nc1N1CCOc2ccc(-c3cnc4sc(N)nc4c3)cc2C1` [Compound 52, 6-[4-(2-amino-5-ethenyl-6-methylpyrimidin-4-yl)-2,3,4,5-tetrahydro-1,4-bcnzoxazepin-7-yl][1,3]thiazolo[5,4-b]pyridin-2-amine], the IC50 against PI3Kalpha and against mTORC1 was not above 0.1 µM each time.

With `C/C=C/c1c(Cl)nc(N)nc1N1CCOc2ccc(-c3cnc4sc(N)nc4c3)cc2C1` [Compound 75, 6-(4-{2-amino-6-chloro-5-[(1E)-prop-1-en-1-yl]pyrimidin-4-yl}-2,3,4,5-tetrahydro-1,4-benzoxazepin-7-yl)[1,3]thiazolo[5,4-b]pyridin-2-amine], the IC50 against PI3Kalpha and at mTORC1 was not above 0.1 µM in each case.

As to `Nc1nc2c(c(N3CCOc4ccc(-c5cnc6sc(N)nc6c5)cc4C3)n1)CCC2` [Compound 15, 6-[4-(2-amino-6,7-dihydro-5H-cyclopenta[d]pyrimidin-4-yl)-2,3,4,5-tetrahydro-1,4-benzoxazepin-7-yl][1,3]thiazolo[5,4-b]pyridin-2-amine], the 50% inhibitory concentration (IC50) on PI3Kalpha and at mTORC1 was not above 0.1 µM throughout.

For `Cc1nc(N)nc(N2CCOc3ccc(-c4cnc5sc(N)nc5c4)cc3C2)c1-c1ccccc1` [Compound 39, 6-[4-(2-amino-6-methyl-5-phenylpyrimidin-4-yl)-2,3,4,5-tetrahydro-1,4-benzoxazepin-7-yl][1,3]thiazolo[5,4-b]pyridin-2-amine], the IC50 against PI3Kalpha and at mTORC1 was not above 0.1 µM throughout.

For the compound `Cc1nc(CN(C)C)nc(N2CCOc3ccc(-c4cnc5sc(N)nc5c4)cc3C2)c1F` [Compound 66, 6-(4-{2-[(dimethylamino)methyl]-5-fluoro-6-methylpyrimidin-4-yl)-1,3,4,5-tetrahydro-1,4-benzoxazepin-7-yl)[1,3]thiazolo[5,4-b]pyridin-2-amine], the half-maximal inhibitory concentration (IC50) against PI3Kalpha was 0.1 to 0.5 µM; against mTORC1, 0.5 to 2.5 µM.

On to `Cc1nc(CO)nc(N2CCOc3ccc(-c4cnc5sc(N)nc5c4)cc3C2)c1C(C)C` [Compound 3, {4-[7-(2-amino[1,3]thiazolo[5,4-b]pyridin-6-yl)-2,3-dihydro-1,4-benzoxazepin-4(5H)-yl]-6-methyl-5-(1-methylethyl)pyrimidin-2-yl}methanol], for which the IC50 on PI3Kalpha and against mTORC1 was not above 0.1 µM in each case.

Take `Nc1nc2cc(-c3ccc4c(c3)CN(c3ccnc([N+](=O)[O-])c3)CCO4)cnc2s1` [Compound 93, 6-[4-(2-nitropyridin-4-yl)-2,3,4,5-tetrahydro-1,4-benzoxazepin-7-yl][1,3]thiazolo[5,4-b]pyridin-2-amine]: the results for the IC50 against PI3Kalpha and against mTORC1 were 0.5 to 2.5 µM and 0.1 to 0.5 µM, respectively.

Turning to `Cc1nc(CN(C)C)nc(N2CCOc3ccc(-c4cnc5sc(N)nc5c4)cc3C2)c1Cc1ccc(F)cc1` [Compound 62, 6-(4-{2-[(dimethylamino)methyl]-5-[(4-fluorophenyl)methyl]-6-methylpyrimidin-4-yl}-2,3,4,5-tetrahydro-1,4-benzoxazepin-7-yl)[1,3]thiazolo[5,4-b]pyridin-2-amine], the IC50 against PI3Kalpha and on mTORC1 was not above 0.1 µM in each case.

For the compound `CC1(C)CCc2nc(CC#N)nc(N3CCOc4ccc(-c5cnc6sc(N)nc6c5)cc4C3)c2C1` [Compound 60, {4-[7-(2-amino[1,3]thiazolo[5,4-b]pyridin-6-yl)-2,3-dihydro-1,4-benzoxazepin-4(5H)-yl]-6,6-dimethyl-5,6,7,8-tetrahydroquinazolin-2-yl}acetonitrile], the IC50 against PI3Kalpha and against mTORC1 was not above 0.1 µM each time.

On to `C=Cc1c(Cl)nc(N)nc1N1CCOc2ccc(-c3cnc4sc(N)nc4c3)cc2C1` [Compound 11, 6-[4-(2-amino-6-chloro-5-ethenylpyrimidin-4-yl)-2,3,4,5-tetrahydro-1,4-benzoxazepin-7-yl][1,3]thiazolo[5,4-b]pyridin-2-amine], for which the IC50 against PI3Kalpha and on mTORC1 was not above 0.1 µM throughout.

For the compound `Nc1nc2cc(-c3ccc4c(c3)CN(c3ncc(C(F)(F)F)c(N)n3)CCO4)cnc2s1` [Compound 81, 6-{4-[4-amino-5-(trifluoromethyl)pyrimidin-2-yl]-2,3,4,5-tetrahydro-1,4-benzoxazepin-7-yl}[1,3]thiazolo[5,4-b]pyridin-2-amine], the IC50 on PI3Kalpha and at mTORC1 was 0.1 to 0.5 µM in each case.

Turning to `COc1ccc2c(N3CCOc4ccc(-c5cnc6sc(N)nc6c5)cc4C3)nc(C)nc2c1` [Compound 26, 6-{4-[2-methyl-7-(methyloxy)quinazolin-4-yl]-2,3,4,5-tetrahydro-1,4-benzoxazepin-7-yl}[1,3]thiazolo[5,4-b]pyridin-2-amine], the figures for the IC50 against PI3Kalpha and against mTORC1 were not above 0.1 µM and 0.1 to 0.5 µM, respectively.

In the case of `Cc1nc(N)nc(N2CCOc3ccc(-c4cnc5sc(N)nc5c4)cc3C2)c1C#N` [Compound 72, 2-amino-4-[7-(2-amino[1,3]thiazolo[5,4-b]pyridin-6-yl)-2,3-dihydro-1,4-benzoxazepin-4(5H)-yl]-6-methylpyrimidine-5-carbonitrile], the IC50 against PI3Kalpha and against mTORC1 was not above 0.1 µM throughout.

Take `C=Cc1cnc(N)nc1N1CCOc2ccc(-c3cnc4sc(N)nc4c3)cc2C1` [Compound 34, 6-[4-(2-amino-5-ethenylpyrimidin-4-yl)-2,3,4,5-tetrahydro-1,4-benzoxazepin-7-yl][1,3]thiazolo[5,4-b]pyridin-2-amine]: the concentration for half-maximal inhibition (IC50) against PI3Kalpha and at mTORC1 was not above 0.1 µM in each case.

Take `CC1=Cc2nc(N)nc(N3CCOc4ccc(-c5cnc6sc(N)nc6c5)cc4C3)c2CC1(C)C` [Compound 98, 4-[7-(2-amino[1,3]thiazolo[5,4-b]pyridin-6-yl)-2,3-dihydro-1,4-benzoxazepin-4(5H)-yl]-6,6,7-trimethyl-5,6-dihydroquinazolin-2-amine]: the IC50 against PI3Kalpha and at mTORC1 was not above 0.1 µM throughout.

With `CCN(CC)Cc1nc(C)c(C(C)C)c(N2CCOc3ccc(-c4cnc5sc(N)nc5c4)cc3C2)n1` [Compound 4, 6-(4-{2-[(diethylamino)methyl]-6-methyl-5-(1-methylethyl)pyrimidin-4-yl}-2,3,4,5-tetrahydro-1,4-benzoxazepin-7-yl)[1,3]thiazolo[5,4-b]pyridin-2-amine], the IC50 on PI3Kalpha and against mTORC1 was not above 0.1 µM each time.

Turning to `COCCc1c(C)nc(N)nc1N1CCOc2ccc(-c3cnc4sc(N)nc4c3)cc2C1` [Compound 12, 6-(4-{2-amino-6-methyl-5-[2-(methyloxy)ethyl]pyrimidin-4-yl)-2,3,4,5-tetrahydro-1,4-benzoxazepin-7-yl)[1,3]thiazolo[5,4-b]pyridin-2-amine], the IC50 on PI3Kalpha and against mTORC1 was not above 0.1 µM each time.

In the case of `CC(C)(C)c1cnc(N)nc1N1CCOc2ccc(-c3cnc4sc(N)nc4c3)cc2C1` [Compound 47, 6-{4-[2-amino-5-(1,1-dimethylethyl)pyrimidin-4-yl]-2,3,4,5-tetrahydro-1,4-benzoxazepin-7-yl}[1,3]thiazolo[5,4-b]pyridin-2-amine], the IC50 against PI3Kalpha and on mTORC1 was 0.5 to 2.5 µM throughout.

Regarding `COC(=O)Cc1c(C)nc(CN(C)C)nc1N1CCOc2ccc(-c3cnc4sc(N)nc4c3)cc2C1` [Compound 14, methyl {4-[7-(2-amino[1,3]thiazolo[5,4-b]pyridin-6-yl)-2,3-dihydro-1,4-benzoxazepin-4(5H)-yl]-2-[(dimethylamino)methyl]-6-methylpyrimidin-5-yl}acetate], the figures for the IC50 on PI3Kalpha and against mTORC1 were not above 0.1 µM and 0.1 to 0.5 µM, respectively.

As to `Cc1nc(N)nc(N2CCOc3c(Cl)cc(-c4cnc5sc(N)nc5c4)cc3C2)c1C(C)C` [Compound 102, 6-{4-[2-amino-6-methyl-5-(1-methylethyl)pyrimidin-4-yl]-9-chloro-2,3,4,5-tetrahydro-1,4-benzoxazepin-7-yl}[1,3]thiazolo[5,4-b]pyridin-2-amine], the IC50 against PI3Kalpha and on mTORC1 was not above 0.1 µM throughout.

In the case of `Cc1c(Cl)nc(N)nc1N1CCOc2ccc(-c3cnc4sc(N)nc4c3)cc2C1` [Compound 31, 6-[4-(2-amino-6-chloro-5-methylpyrimidin-4-yl)-2,3,4,5-tetrahydro-1,4-benzoxazepin-7-yl][1,3]thiazolo[5,4-b]pyridin-2-amine], the IC50 at PI3Kalpha was not above 0.1 µM; on mTORC1, 0.1 to 0.5 µM.
